Test results: US20240308985A1 (Psy Therapeutics, Inc., priority 2021, published 2024)
Like-named read-outs stand apart in the source and are kept apart here.

Columns and labels:
[1] = Pharmacokinetic study of compounds in mice (brain exposure); type: in vivo, male C57BL/6 mice; conditions: oral
Method: Healthy male C57BL/6 mice (8-12 weeks old) weighing between 17 to 35 g were procured from Global, India. Temperature and humidity were maintained at 22±f3° C. and 30-70%, respectively and illumination was controlled to give a sequence of 12 hr light and 12 hr dark cycle. Temperature and humidity were recorded by auto-controlled data logger system. All the animals were provided laboratory rodent diet. Reverse osmosis water treated with ultraviolet light was provided ad libitum.
Protocol A: Twenty-four male mice were divided into two groups as; Group 1: 30 mg/kg/IP; Plasma and brain; Number of animals=12: Animal #1-12. Group 2: 30 mg/kg/PO; Plasma and brain; Number of animals=12; Animal #13-24. Animals in Group 1 were administered intraperitoneally with solution formulation of PSY-05-00074-001 in 5% NMP, 5% Solutol HS-15 and 90% normal saline at 30 mg/kg dose. Animals in Group 2 were administered orally with solution formulation of PSY-05-00074-001 in 5% NMP, 5% Solutol HS-15 and 90% normal saline at 30 mg/kg dose. Blood samples (approximately 60 μL) were collected under light isoflurane anesthesia from retro orbital plexus at 0.25, 0.5, 1, 2, 4 and 8 hr (IP and PO). Plasma samples were separated by centrifugation of whole blood and stored below −70° C. until bioanalysis. Immediately after collection of blood from intraperitoneal and oral group animals, animals were euthanized with excess CO2 and brain samples were collected from set of two mice at each time point. Brain samples were divided into two parts. Half brain samples were homogenized using ice-cold phosphate buffer saline (pH—7.4) and homogenates were stored below −70±10° C. until analysis. Total homogenate volume was three times the brain weight. Other part of brain was stored below −70±10° C. for further analysis. All samples were processed for analysis by protein precipitation using acetonitrile and analyzed with fit-for-purpose LC/MS/MS method (LLOQ—2.02 ng/mL for plasma and 6.06 ng/g for brain). Pharmacokinetic parameters were calculated using the non-compartmental analysis tool of Phoenix WinNonlin®.
Protocol B: Thirty six mice were included into the study and divided in to three groups as Group 1 (n=12), Group 2 (n=12) and Group 3 (n=12) with n=2 mice per time-point design. Animals in Group 1 were administered intravenously with solution formulation of PSY-05-00414-001 at 5 mg/kg dose. Animals in Group 2 were administered orally with solution formulation of PSY-05-00414-001 at a dose of 5 mg/kg. Animals in Group 3 were administered intraperitoneally with solution formulation of PSY-05-00414-001 at 5 mg/kg dose. The formulation vehicle for all the three groups was 5% NMP, 5% Solutol HS-15 and 90% normal saline. Blood samples (approximately 60 μL) were collected under light isoflurane anesthesia from two mice at 0.25, 0.5, 1, 2, 4 and 8 h. Plasma was harvested by centrifugation of blood and stored at −70±10° C. until analysis. After blood collection, brain was perfused and isolated at 0.25, 0.5, 1, 2, 4 and 8 h. Brain samples were dipped thrice in ice-cold phosphate buffer saline, blotted dry and cut in to two equal portion. Half-brain samples from each time-point were weighed and homogenized using ice-cold phosphate buffer saline with twice volume of brain weight making the total homogenate three volumes and stored below −70±10° C. until analysis. Remaining half-portions of brain samples was snap freeze and kept in −70±10° C. until further confirmation from client. Plasma and brain samples were quantified by fit-for-purpose LC-MS/MS method (LLOQ: 1.01 ng/mL for plasma and 2.02 ng/mL for brain).
Protocol C: Fifty four male mice were included in study and divided in to three groups as Group 1 (n=18), Group 2 (n=18) and Group 3 (n=18) with 3 mice/time point design. Animals from Group 1, Group 2 and Group 3 were administered by intravenous, oral and intraperitoneal route with solution formulation of PSY-05-00451-001 at 5 mg/kg dose, respectively. […]

[2] = target: Monoacylglycerol Lipase (MAGL) (Homo sapiens (Human), UniProt Q99685); assay: MAGL inhibition potency (IC50) assay with 4NPA substrate; type: biochemical; conditions: Method 13: Reaction Biology MAGL enzyme, 12 nM; read-out: MAGL Potency (Detection Method)
Chain of Monoacylglycerol Lipase (MAGL) (Q99685 2-303): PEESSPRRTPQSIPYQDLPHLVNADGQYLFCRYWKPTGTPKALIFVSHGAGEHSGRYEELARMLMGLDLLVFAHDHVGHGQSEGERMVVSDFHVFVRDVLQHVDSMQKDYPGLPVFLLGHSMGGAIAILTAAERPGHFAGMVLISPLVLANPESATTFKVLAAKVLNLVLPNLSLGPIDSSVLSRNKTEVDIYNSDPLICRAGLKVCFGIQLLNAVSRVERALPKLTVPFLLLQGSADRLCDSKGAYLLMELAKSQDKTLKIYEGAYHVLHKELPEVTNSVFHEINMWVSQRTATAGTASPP

Compound	AUClast ([1]; 5 mg/kg) [ng·h/mL]	Cmax ([1]; 5 mg/kg) [ng/g]	IC50 [2] [nM]	AUC(0-t) ([1]; male, C57BL/6, mouse, 30 mg/kg, Protocol A) [ng·h/mL]	Cmax ([1]; male, C57BL/6, mouse, 30 mg/kg, Protocol A, read-out: Cmax) [ng/g]
O=C(c1ccc(F)cc1OC1CC1)N1CC2(CC(n3nc(-c4ccccc4C(F)(F)F)cc3C(F)(F)F)C2)C1 (single isomer, unassigned) [Compound 451, (2-cyclopropoxy-4-fluorophenyl)(6-{5-(trifluoromethyl)-3-[o-(trifluoromethyl)phenyl]-1-pyrazolyl}-2-aza-2-spiro[3.3]heptyl)methanone]	1204.22	271.39	–	–	–
Cc1cnn(C2CC3(C2)CN(C(=O)c2cc(O)ccc2F)C3)c1-c1cc(F)ccc1F (single isomer, unassigned) [Compound 476, (6-(5-(2,5-Difluorophenyl)-4-methyl-1H-pyrazol-1-yl)-2-azaspiro [3.3]heptan-2-yl) (2-fluoro-5-hydroxyphenyl) methanone]	223.64	72	50 to 150	–	–
Cc1cc(C2CC3(C2)CN(C(=O)c2cc(O)ccc2F)C3)n(-c2ccccc2C)n1 [Compound 74, (2-fluoro-5-hydroxyphenyl)(6-(3-methyl-1-(o-tolyl)-1H-pyrazol-5-yl)-2-azaspiro[3.3]heptan-2-yl)methanone]	–	–	–	117	102
